Results taken from the supplement of paper PMC10307832.

Experiments:
Test in all cases: relative viability (nuclei count vs DMSO), 5 days (fraction); higher = more cells survive
Ispinesib + Crizotinib = compound: Cc1ccc(C(=O)N(CCCN)[C@@H](c2nc3cc(Cl)ccc3c(=O)n2Cc2ccccc2)C(C)C)cc1 [Ispinesib] + C[C@@H](Oc1cc(-c2cnn(C3CCNCC3)c2)cnc1N)c1c(Cl)ccc(F)c1Cl [Crizotinib] (partner 1 µM)
Method in brief: (§1)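 Lung cancer cell lines, seeded in 1536-well plates, were treated the following day by pin tool with a single drug or with five library-drug doses (not always all listed) in √10 steps on top of a fixed anchor-drug dose. Cells were fixed and nuclei stained in one step after 5 days, and nuclei were counted. Relative viability is the nuclei count for treated wells divided by that for vehicle wells, reported as medians of duplicate plates.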

Ispinesib + Pictilisib = compound: Cc1ccc(C(=O)N(CCCN)[C@@H](c2nc3cc(Cl)ccc3c(=O)n2Cc2ccccc2)C(C)C)cc1 [Ispinesib] + CS(=O)(=O)N1CCN(Cc2cc3nc(-c4cccc5[nH]ncc45)nc(N4CCOCC4)c3s2)CC1 [Pictilisib] (partner 1 µM)
Method in brief: as §1

Ispinesib + Vorinostat = compound: Cc1ccc(C(=O)N(CCCN)[C@@H](c2nc3cc(Cl)ccc3c(=O)n2Cc2ccccc2)C(C)C)cc1 [Ispinesib] + O=C(CCCCCCC(=O)Nc1ccccc1)NO [Vorinostat] (partner 1 µM)
Method in brief: as §1

Linsitinib + OSI-027 = compound: C[C@]1(O)C[C@@H](c2nc(-c3ccc4ccc(-c5ccccc5)nc4c3)c3c(N)nccn32)C1 [Linsitinib] + COc1cccc2cc(-c3nc([C@H]4CC[C@H](C(=O)O)CC4)n4ncnc(N)c34)[nH]c12 [OSI-027] (partner 0.5 µM)
Method in brief: as §1

Cell Line | relative viability (Ispinesib + Crizotinib; first compound 0.001 µM) | relative viability (Ispinesib + Crizotinib; first compound 0.003162 µM) | relative viability (Ispinesib + Crizotinib; first compound 0.01 µM) | relative viability (Ispinesib + Crizotinib; first compound 0.03162 µM) | relative viability (Ispinesib + Crizotinib; first compound 0.1 µM) | relative viability (Ispinesib + Pictilisib; first compound 0.001 µM) | relative viability (Ispinesib + Pictilisib; first compound 0.003162 µM) | relative viability (Ispinesib + Pictilisib; first compound 0.01 µM) | relative viability (Ispinesib + Pictilisib; first compound 0.03162 µM) | relative viability (Ispinesib + Pictilisib; first compound 0.1 µM) | relative viability (Ispinesib + Vorinostat; first compound 0.001 µM) | relative viability (Ispinesib + Vorinostat; first compound 0.003162 µM) | relative viability (Ispinesib + Vorinostat; first compound 0.01 µM) | relative viability (Ispinesib + Vorinostat; first compound 0.03162 µM) | relative viability (Ispinesib + Vorinostat; first compound 0.1 µM) | relative viability (Linsitinib + OSI-027; first compound 0.01 µM) | relative viability (Linsitinib + OSI-027; first compound 0.03162 µM) | relative viability (Linsitinib + OSI-027; first compound 0.1 µM) | relative viability (Linsitinib + OSI-027; first compound 0.3162 µM) | relative viability (Linsitinib + OSI-027; first compound 1 µM)
LU99A | 0.503 | 0.589 | 0.569 | 0.421 | 0.231 | 0.358 | 0.286 | 0.287 | 0.223 | 0.161 | 0.445 | 0.485 | 0.467 | 0.265 | 0.247 | 0.32 | 0.314 | 0.299 | 0.245 | 0.24
LXF-289 | 0.798 | 0.815 | 0.888 | 0.759 | 0.397 | 0.846 | 0.812 | 0.909 | 0.709 | 0.123 | 0.758 | 0.772 | 0.837 | 0.478 | 0.217 | 0.769 | 0.757 | 0.795 | – | 0.515
NCI-H23 | 0.475 | 0.46 | 0.595 | 0.499 | 0.283 | 0.441 | 0.479 | 0.557 | 0.251 | 0.189 | 0.542 | 0.619 | 0.647 | 0.419 | 0.21 | 0.722 | 0.64 | 0.606 | 0.206 | 0.251
NCI-H322M | 1.03 | 0.918 | 0.976 | 0.747 | 0.973 | 0.527 | 0.489 | 0.54 | 0.44 | 0.397 | 0.96 | 0.95 | 0.995 | 0.659 | 0.505 | 0.547 | 0.47 | 0.531 | 0.361 | 0.384
NCI-H358 | 0.617 | 0.515 | 0.665 | 0.409 | 0.424 | 0.298 | 0.359 | 0.377 | 0.227 | 0.245 | 0.977 | 0.752 | 0.744 | 0.703 | 0.196 | 0.781 | 0.928 | 0.68 | 0.421 | 0.246
NCI-H441 | 0.834 | 0.697 | 0.485 | 0.217 | 0.222 | 0.441 | 0.505 | 0.468 | 0.145 | 0.209 | 0.838 | 0.909 | 0.91 | 0.548 | 0.256 | 0.672 | 0.616 | 0.546 | 0.307 | 0.312
NCI-H460 | 1.11 | 1.07 | – | 0.38 | 0.083 | 0.415 | 0.425 | 0.449 | 0.229 | 0.0764 | 1.37 | 1.03 | 1.1 | 0.237 | 0.107 | 0.736 | 0.646 | 0.701 | 0.507 | 0.304
NCI-H520 | 0.783 | 0.631 | 0.781 | 0.346 | 0.438 | 0.353 | 0.276 | 0.295 | 0.181 | 0.172 | 0.776 | 0.71 | 0.662 | 0.268 | 0.234 | 0.232 | 0.188 | 0.25 | – | 0.332
NCI-H596 | 1.1 | 0.95 | 1 | 1.03 | 0.652 | 0.416 | 0.377 | 0.372 | 0.361 | 0.251 | 0.58 | 0.741 | 0.642 | 0.609 | 0.35 | 0.7 | 0.694 | 0.802 | 0.674 | 0.448
NCI-H647 | 1.18 | 0.869 | 0.942 | 0.416 | 0.207 | 0.402 | 0.504 | 0.449 | 0.104 | 0.0557 | 0.637 | 0.57 | 0.497 | 0.333 | 0.141 | 0.679 | 0.658 | 0.582 | – | 0.428
NCI-H650 | 0.526 | 0.669 | 0.826 | 0.595 | 0.404 | 0.861 | 0.99 | 0.868 | 0.827 | 0.402 | 0.508 | 0.459 | 0.475 | 0.365 | 0.199 | 0.524 | 0.527 | 0.541 | 0.256 | 0.27
NCI-H661 | 1.02 | – | 1.04 | 0.736 | 0.376 | 0.387 | 0.471 | 0.41 | 0.31 | 0.332 | 0.869 | 0.804 | 0.849 | 0.302 | 0.19 | 0.732 | 0.651 | 0.652 | 0.6 | 0.516
NCI-H727 | – | 0.943 | 1.02 | 0.632 | 0.408 | – | 0.461 | 0.313 | 0.232 | 0.239 | 1.24 | 1.31 | – | 1.05 | 1.06 | 0.609 | 0.597 | 0.608 | 0.347 | 0.358
NCI-H838 | 0.955 | 0.901 | 1.22 | 0.725 | 0.285 | 0.451 | 0.494 | 0.544 | 0.392 | 0.257 | 0.738 | 0.726 | 0.739 | 0.625 | 0.238 | 0.323 | 0.42 | 0.312 | – | 0.189
NCI-H1355 | 1.13 | 1.19 | 1.29 | 1.15 | 0.451 | 0.418 | 0.434 | 0.489 | 0.252 | 0.198 | 0.673 | 0.675 | 0.758 | 0.458 | 0.286 | 0.419 | 0.41 | 0.307 | 0.244 | 0.226
NCI-H1437 | 0.993 | 0.971 | 1.11 | 0.902 | 0.195 | 0.46 | 0.48 | 0.477 | 0.393 | 0.207 | 0.967 | 0.837 | 0.922 | 0.878 | 0.219 | 0.874 | 0.885 | 1.02 | 0.853 | 0.893
